Inconclusive results and toxic doses are left out. The calls were made as follows: active = survival T/C of 150% or more; inactive = T/C below 125% in these data.
Tested on: P388 leukemia ip, CD2F1 mice, survival T/C
Experiment: NCI In Vivo Anticancer Drug Screen. Data for tumor model P388 Leukemia (intraperitoneal) in CD2F1 (CDF1) mice
Conditions: endpoint: median survival time, higher = longer survival
In short: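 Mice carrying the transplanted tumor received test compound or vehicle. Survival was recorded in each group, and the value is the treated-group measurement divided by that of the vehicle-treated control group.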

[1] = dose: 60.0 mg/kg/injection, schedule: Q01DX005 (ip), vehicle: saline
[2] = dose: 120.0 mg/kg/injection, schedule: Q01DX005 (ip), vehicle: saline
[3] = dose: 240.0 mg/kg/injection, schedule: Q01DX005 (ip), vehicle: saline
[4] = dose: 60.0 mg/kg/injection, schedule: Q01DX005 (ip), vehicle: saline with Tween-80
[5] = dose: 120.0 mg/kg/injection, schedule: Q01DX005 (ip), vehicle: saline with Tween-80
[6] = dose: 240.0 mg/kg/injection, schedule: Q01DX005 (ip), vehicle: saline with Tween-80

Measured: T/C

CC(C)(C)COCC(O)Cn1cnc2c(N)ncnc21 (stereo not drawn)
inactive: dose: 50.0 mg/kg/injection, schedule: Q01DX005 (ip), vehicle: Klucel (hydroxypropylcellulose) (HPC) 100 % of control | dose: 100.0 mg/kg/injection, schedule: Q01DX005 (ip), vehicle: Klucel (hydroxypropylcellulose) (HPC) 97 % of control | dose: 200.0 mg/kg/injection, schedule: Q01DX005 (ip), vehicle: Klucel (hydroxypropylcellulose) (HPC) 91 % of control

C=CCCc1c(OC)cccc1C1=NC(C)(C)CO1
inactive: dose: 50.0 mg/kg/injection, schedule: Q01DX005 (ip), vehicle: saline with Tween-80 106 % of control | dose: 100.0 mg/kg/injection, schedule: Q01DX005 (ip), vehicle: saline with Tween-80 102 % of control | dose: 200.0 mg/kg/injection, schedule: Q01DX005 (ip), vehicle: saline with Tween-80 100 % of control

Cn1cc2c(=O)n(C)ncc2n1
inactive: [1] 100 % of control | [2] 109 % of control | [3] 100 % of control

CSC1(SC)CCN(C)C1=O
inactive: dose: 25.0 mg/kg/injection, schedule: Q01DX009 (ip), vehicle: saline with Tween-80 90 % of control | dose: 50.0 mg/kg/injection, schedule: Q01DX009 (ip), vehicle: saline with Tween-80 93 % of control | dose: 100.0 mg/kg/injection, schedule: Q01DX009 (ip), vehicle: saline with Tween-80 92 % of control

CCC(=O)N(C)C(C)C(=O)OC1CC(=O)N(C)c2cc(cc(OC)c2Cl)CC(C)CCCC(OC)C2(O)CC(OC(=O)N2)C(C)C2OC12C (stereo not drawn)
inactive: dose: 1.56 micrograms/kg/injection, schedule: Q01DX009 (ip), vehicle: saline + alcohol 106 % of control | dose: 3.12 micrograms/kg/injection, schedule: Q01DX009 (ip), vehicle: saline + alcohol 105 % of control | dose: 6.25 micrograms/kg/injection, schedule: Q01DX009 (ip), vehicle: saline + alcohol 110 % of control | dose: 12.5 micrograms/kg/injection, schedule: Q01DX009 (ip), vehicle: saline + alcohol 108 % of control | dose: 50.0 micrograms/kg/injection, schedule: Q01DX009 (ip), vehicle: saline + alcohol 105 % of control | dose: 100.0 micrograms/kg/injection, schedule: Q01DX009 (ip), vehicle: saline + alcohol 109 % of control | dose: 200.0 micrograms/kg/injection, schedule: Q01DX009 (ip), vehicle: saline + alcohol 102 % of control | dose: 400.0 micrograms/kg/injection, schedule: Q01DX009 (ip), vehicle: saline + alcohol 114 % of control

CCN(CC)CC(C)(C)C(=O)/C=C/c1ccccc1
inactive: [1] 103 % of control | [2] 102 % of control | [3] 115 % of control

Nc1nc(NCCCc2ccccc2)c(N=Nc2ccccc2)c(=O)[nH]1
inactive: [4] 105 % of control | [5] 105 % of control | [6] 105 % of control

CCCCCCCCCCCCCCCC(CCCCCC)CCCCCC
inactive: dose: 50.0 mg/kg/injection, schedule: Q01DX001 (ip), vehicle: saline sonified 113 % of control | dose: 100.0 mg/kg/injection, schedule: Q01DX001 (ip), vehicle: saline sonified 100 % of control | dose: 200.0 mg/kg/injection, schedule: Q01DX001 (ip), vehicle: saline sonified 109 % of control

CC(=Nc1c(Cl)c(Cl)c2c(c1Cl)C(=O)c1cc(Cl)ccc1-2)NO
inactive: [4] 97 % of control | [5] 104 % of control | [6] 95 % of control

FC(F)(F)C(OCC1CO1)(c1ccccc1)C(F)(F)F (stereo not drawn)
inactive: dose: 50.0 mg/kg/injection, schedule: Q01DX009 (ip), vehicle: Klucel (hydroxypropylcellulose) (HPC) 89 % of control | dose: 100.0 mg/kg/injection, schedule: Q01DX009 (ip), vehicle: Klucel (hydroxypropylcellulose) (HPC) 97 % of control | dose: 200.0 mg/kg/injection, schedule: Q01DX009 (ip), vehicle: Klucel (hydroxypropylcellulose) (HPC) 97 % of control

CN1CNC(=S)NC1
inactive: dose: 50.0 mg/kg/injection, schedule: Q01DX009 (ip), vehicle: saline 105 % of control | dose: 100.0 mg/kg/injection, schedule: Q01DX009 (ip), vehicle: saline 102 % of control | dose: 200.0 mg/kg/injection, schedule: Q01DX009 (ip), vehicle: saline 101 % of control

From PubChem BioAssay AID330 (DTP/NCI, 2004)
